The results in this text go back to patent US7671054B1, “Reverse-turn mimetics and method relating thereto” (Choongwae Pharma Corporation, priority 2001, dated 2010).

In assay [1] the test system is HCT116 cells. Briefly: Growth inhibition assay (MTS). It is filed as cell-based. To be noted: Homo sapiens, HCT116 cells, 48 hours treatment, MTS, read-out: Growth Inhibition (GI50, uM) HCT116. How it is done: (§1) SW480 or HCT116 cells were placed into 96 well microplate (10^4cells/well) and incubated for 24 hours at 37° C. 20 μl of [3-(4,5-dimethylthiazol-2-yl)-5-(3-carboxyphenyl)-2-(4-sulfophenyl)-2H-tetrazolium, inner salt](MTS) solution (Promega) was added into each well and the absorbance after 2 hour incubation at 37° C. (negative control) was read. And then, the cells were treated with TCF4 compound at various concentrations for 48 hours. 20 μl of MTS solution (Promega) was added into each well and incubated for 2 hour at 37° C. Cell viability was measured by reading the absorbance at 490 nm using a microplate reader (Molecular device) and cytotoxicity of a compound at each concentration was calculated.
as §1, with “a test” for “TCF4”

Assay [2] relates to SW480 cells. Briefly: Growth inhibition assay (MTS). To be noted: Homo sapiens, SW480 cells, 48 hours treatment, MTS, read-out: Growth Inhibition (GI50, uM) SW480. The assay is classed as cell-based. How it is done:
as §1
as §1, with “a test” for “TCF4”

Where two headings read alike, the source gives them in different places. Where only a bound is given, the exact number is not on record here.

As for `C=CC[C@@H]1CC(=O)N2[C@H](CN(Cc3cccc(OC)c3OC)C(=O)[C@@H]2Cc2ccc(O)cc2)N1C(=O)NCc1ccccc1`, the 50% growth inhibitory concentration (GI50) turned out to be 4.91 µM in assay [1] (HCT-116, 48 h, Example 21) and 4.1 µM in assay [2] (SW480, 48 h, Example 21).
In the same order, the values of `C=CC[C@@H]1CC(=O)N2[C@H](CN(Cc3cccc4cn[nH]c34)C(=O)[C@@H]2Cc2ccc(O)cc2)N1C(=O)NCc1ccccc1` are 2.3 µM and 2 µM.
Consider `C=CC[C@@H]1CC(=O)N2[C@H](CN(Cc3cccc4scnc34)C(=O)[C@@H]2Cc2ccc(O)cc2)N1C(=O)NCc1ccccc1`, for which the GI50 in assay [1] (HCT-116, 48 h, Example 21) stood at 1.4 µM; in assay [2] (SW480, 48 h, Example 21) it was 1.2 µM.
Take `COc1ccccc1CN1C[C@H]2N(C(=O)CN(C)N2C(=O)NCc2ccccc2)[C@@H](Cc2ccc(O)cc2)C1=O` [Compound 2]: the GI50 in assay [1] (HCT-116, 48 h, Table 5) was determined as 2.23 µM; in assay [2] (SW480, 48 h, Table 5) it was 2.58 µM.
For the molecule `CN1CC(=O)N2[C@@H](Cc3ccc(O)cc3)C(=O)N(Cc3ccc(Cl)cc3)C[C@@H]2N1C(=O)NCc1ccccc1` [Compound 3], the 50% growth inhibitory concentration (GI50) in assay [1] (HCT-116, 48 h, Table 5) was determined as 2.39 µM; in assay [2] (SW480, 48 h, Table 5), 2.73 µM.
In the same order, the values of `CN1CC(=O)N2[C@@H](Cc3ccc(O)cc3)C(=O)N(Cc3ccc(Cl)c(Cl)c3)C[C@@H]2N1C(=O)NCc1ccccc1` [Compound 4] are 1.91 µM and 1.99 µM.
In the same order, the values of `CN1CC(=O)N2[C@@H](Cc3ccc(O)cc3)C(=O)N(Cc3ccccc3OC(F)(F)F)C[C@@H]2N1C(=O)NCc1ccccc1` [Compound 5] are 2.06 µM and 2.32 µM.
In the same order, the values of `CN1CC(=O)N2[C@@H](Cc3ccc(O)cc3)C(=O)N(Cc3ccccc3SC(F)(F)F)C[C@@H]2N1C(=O)NCc1ccccc1` [Compound 6] are 3.91 µM and 3.96 µM.
Consider `CN1CC(=O)N2[C@@H](Cc3ccc(O)cc3)C(=O)N(Cc3ccccc3C(F)(F)F)C[C@@H]2N1C(=O)NCc1ccccc1` [Compound 7], for which the GI50 is 0.73 µM in assay [1] (HCT-116, 48 h, Table 5) and 1.22 µM in assay [2] (SW480, 48 h, Table 5).
On to `CN1CC(=O)N2[C@@H](Cc3ccc(O)cc3)C(=O)N(Cc3cccc4cccnc34)C[C@@H]2N1C(=O)NCc1ccccc1` [Compound 8], for which the GI50 is under 0.3 µM in assay [1] (HCT-116, 48 h, Table 5) and under 0.3 µM in assay [2] (SW480, 48 h, Table 5).
Consider `CN1CC(=O)N2[C@@H](Cc3ccc(O)cc3)C(=O)N(Cc3ccc4ccccc4c3)C[C@@H]2N1C(=O)NCc1ccccc1` [Compound 9], for which the 50% growth inhibitory concentration (GI50) worked out at 1.92 µM in assay [1] (HCT-116, 48 h, Table 5) and 2.36 µM in assay [2] (SW480, 48 h, Table 5).
As for `CN1CC(=O)N2[C@@H](Cc3ccc(O)cc3)C(=O)N(Cc3ccccc3C(F)(F)F)C[C@@H]2N1C(=O)NCc1ccccc1` [Compound 10], the GI50 in assay [1] (HCT-116, Table 5) amounted to 1.66 µM; in assay [2] (Table 5) it was 2.34 µM.
For the molecule `CN1CC(=O)N2[C@@H](Cc3ccc(O)cc3)C(=O)N(Cc3cccc(F)c3)C[C@@H]2N1C(=O)NCc1ccccc1` [Compound 11], the concentration for 50% growth inhibition (GI50) was found to be 1.3 µM in assay [1] (HCT-116, Table 5) and 1.97 µM in assay [2] (Table 5).
Turning to `CN1CC(=O)N2[C@@H](Cc3ccc(O)cc3)C(=O)N(Cc3ccc(F)cc3)C[C@@H]2N1C(=O)NCc1ccccc1` [Compound 12], the GI50 was determined as 1.48 µM in assay [1] (HCT-116, Table 5) and 2.54 µM in assay [2] (Table 5).
Turning to `CN1CC(=O)N2[C@@H](Cc3ccc(O)cc3)C(=O)N(Cc3cccc(C(F)(F)F)c3)C[C@@H]2N1C(=O)NCc1ccccc1` [Compound 14], the GI50 is 2.1 µM in assay [1] (HCT-116, 48 h, Table 5) and 2.7 µM in assay [2] (SW480, 48 h, Table 5).
Turning to `CN1CC(=O)N2C(CN(Cc3ccccc3Cl)C(=O)[C@@H]2Cc2ccc(O)cc2)N1C(=O)NCc1ccccc1` (stereo partly drawn) [Compound 15], the GI50 came to 1.34 µM in assay [1] (HCT-116, 48 h, Table 5) and 1.68 µM in assay [2] (SW480, 48 h, Table 5).
For `CN1CC(=O)N2[C@@H](Cc3ccc(O)cc3)C(=O)N(Cc3cc(F)c(F)c(F)c3)C[C@@H]2N1C(=O)NCc1ccccc1` [Compound 17], in that order: 0.74 µM and 1.12 µM.
As for `CN1CC(=O)N2C(CN(Cc3ccc(Cl)cc3Cl)C(=O)[C@@H]2Cc2ccc(O)cc2)N1C(=O)NCc1ccccc1` (stereo partly drawn) [Compound 18], the GI50 was 3.52 µM in assay [1] (HCT-116, 48 h, Table 5) and 4.63 µM in assay [2] (SW480, 48 h, Table 5).
For `C[C@H](c1ccccc1)N1C[C@H]2N(C(=O)CN(C)N2C(=O)NCc2ccccc2)[C@@H](Cc2ccc(O)cc2)C1=O` [Compound 19], in that order: 1.17 µM and 2.66 µM.
Turning to `COc1ccc(CN2CC3N(C(=O)CN(C)N3C(=O)NCc3ccccc3)[C@@H](Cc3ccc(O)cc3)C2=O)cc1` (stereo partly drawn) [Compound 20], the concentration for 50% growth inhibition (GI50) was found to be 2.75 µM in assay [1] (HCT-116, 48 h, Table 5) and 5.02 µM in assay [2] (SW480, 48 h, Table 5).
In the same order, the values of `COc1cccc(CN2CC3N(C(=O)CN(C)N3C(=O)NCc3ccccc3)[C@@H](Cc3ccc(O)cc3)C2=O)c1OC` (stereo partly drawn) [Compound 21] are 1.67 µM and 5.25 µM.
In the same order, the values of `CN(C)c1ccccc1CN1C[C@H]2N(C(=O)CN(C)N2C(=O)NCc2ccccc2)[C@@H](Cc2ccc(O)cc2)C1=O` [Compound 22] are 3.26 µM and 6.58 µM.
In the same order, the values of `CN1CC(=O)N2[C@@H](Cc3ccc(O)cc3)C(=O)N(Cc3ccc(F)cc3C(F)(F)F)C[C@@H]2N1C(=O)NCc1ccccc1` [Compound 23] are 25.4 µM and 3.9 µM.
For `CN(C)c1cc(Cl)ccc1CN1C[C@H]2N(C(=O)CN(C)N2C(=O)NCc2ccccc2)[C@@H](Cc2ccc(O)cc2)C1=O` [Compound 24], the 50% growth inhibitory concentration (GI50) in assay [1] (HCT-116, 48 h, Table 5) was determined as 1.67 µM; in assay [2] (SW480, 48 h, Table 5), 13.8 µM.
For `CCN(C)c1cccc(CN2C[C@H]3N(C(=O)CN(C)N3C(=O)NCc3ccccc3)[C@@H](Cc3ccc(O)cc3)C2=O)c1` [Compound 25], in that order: 1.81 µM and 24.5 µM.
In the same order, the values of `CCN(CC)c1cccc(CN2C[C@H]3N(C(=O)CN(C)N3C(=O)NCc3ccccc3)[C@@H](Cc3ccc(O)cc3)C2=O)c1` [Compound 26] are 3.06 µM and 23.9 µM.
In the case of `CN(C)c1cc(F)ccc1CN1C[C@H]2N(C(=O)CN(C)N2C(=O)NCc2ccccc2)[C@@H](Cc2ccc(O)cc2)C1=O` [Compound 27], the GI50 amounted to 1.13 µM in assay [1] (HCT-116, 48 h, Table 5) and 11.7 µM in assay [2] (SW480, 48 h, Table 5).
For `Cc1cc(C)c(N(C)C)c(CN2C[C@H]3N(C(=O)CN(C)N3C(=O)NCc3ccccc3)[C@@H](Cc3ccc(O)cc3)C2=O)c1` [Compound 28], in that order: 5.47 µM and 3.57 µM.
Turning to `Cc1ccc(N(C)C)c(CN2C[C@H]3N(C(=O)CN(C)N3C(=O)NCc3ccccc3)[C@@H](Cc3ccc(O)cc3)C2=O)c1` [Compound 29], the GI50 is 7.93 µM in assay [1] (HCT-116, 48 h, Table 5) and 16 µM in assay [2] (SW480, 48 h, Table 5).
In the same order, the values of `CC(C)N(C)c1ccccc1CN1C[C@H]2N(C(=O)CN(C)N2C(=O)NCc2ccccc2)[C@@H](Cc2ccc(O)cc2)C1=O` [Compound 30] are 5.4 µM and 14.1 µM.
With `CN(C1CC1)C1CC=CC=C1CN1C[C@H]2N(C(=O)CN(C)N2C(=O)NCc2ccccc2)[C@@H](Cc2ccc(O)cc2)C1=O` (stereo partly drawn) [Compound 31], the GI50 in assay [1] (HCT-116, 48 h, Table 5) was 5 ± 1 µM; in assay [2] (SW480, 48 h, Table 5) it was 8.1 ± 0.7 µM.
In the same order, the values of `CC(C)N(C)c1cccc(Cl)c1CN1C[C@H]2N(C(=O)CN(C)N2C(=O)NCc2ccccc2)[C@@H](Cc2ccc(O)cc2)C1=O` [Compound 32] are 16.9 ± 1.9 µM and 47.2 ± 12.1 µM.
In the same order, the values of `CC(C)N(C)c1cc(CN2C[C@H]3N(C(=O)CN(C)N3C(=O)NCc3ccccc3)[C@@H](Cc3ccc(O)cc3)C2=O)ccc1Cl` [Compound 33] are 28.6 ± 2 µM and over 50 µM.
In the same order, the values of `CCCN(C)c1cccc(CN2C[C@H]3N(C(=O)CN(C)N3C(=O)NCc3ccccc3)[C@@H](Cc3ccc(O)cc3)C2=O)c1` [Compound 34] are 6.4 ± 1.3 µM and 13.8 ± 2.4 µM.
`CN1CC(=O)N2[C@@H](Cc3ccc(O)cc3)C(=O)N(Cc3cccc4c3cnn4C)C[C@@H]2N1C(=O)NCc1ccccc1` [Compound 35]: the concentration for 50% growth inhibition (GI50) in assay [1] (HCT-116, 48 h, Table 5) was 5 ± 0.7 µM; in assay [2] (SW480, 48 h, Table 5), 4.7 ± 0.5 µM.
On to `CN(c1cccc(CN2C[C@H]3N(C(=O)CN(C)N3C(=O)NCc3ccccc3)[C@@H](Cc3ccc(O)cc3)C2=O)c1)C1CC1` [Compound 36], for which the GI50 in assay [1] (HCT-116, 48 h, Table 5) amounted to 12.7 ± 1.3 µM; in assay [2] (SW480, 48 h, Table 5), 21.9 ± 2.3 µM.
For the molecule `C[C@H](c1ccc(F)c(N(C)C)c1)N1C[C@H]2N(C(=O)CN(C)N2C(=O)NCc2ccccc2)[C@@H](Cc2ccc(O)cc2)C1=O` [Compound 37], the GI50 in assay [1] (HCT-116, 48 h, Table 5) was found to be 9.2 ± 0.9 µM; in assay [2] (SW480, 48 h, Table 5), 10.4 ± 0.8 µM.
For `C[C@H](c1cccc(N(C)C)c1)N1C[C@H]2N(C(=O)CN(C)N2C(=O)NCc2ccccc2)[C@@H](Cc2ccc(O)cc2)C1=O` [Compound 38], in that order: 6.9 µM and 8.5 µM.
Take `C#CCN1CC(=O)N2[C@@H](Cc3ccc(O)cc3)C(=O)N(Cc3cc(F)c(F)cc3N(C)C)C[C@@H]2N1C(=O)NCc1ccccc1` [Compound 81]: in assay [1] (HCT-116, 48 h, Table 5), the 50% growth inhibitory concentration (GI50) turned out to be 1.8 ± 0.1 µM.
Still for that read-out and setting: to `C=CCN1CC(=O)N2[C@@H](Cc3ccc(O)cc3)C(=O)N(Cc3cccc(N4CCCC4=O)c3)C[C@@H]2N1C(=O)NCc1ccccc1` [Compound 123] belongs 1.7 ± 0.3 µM.
